According to US20120076811A1 (priority 2009, published 2012):
“Also recorded” adds a separate entry of the source.

Tests used:
[1] = system: lymphoid cells from type II collagen immunized DR1 transgenic mice; format: cell-based, mouse
[2] = target: HA259-274 specific CD4+ T cells from DR1 transgenic mice immunized with H5N1-rHA1 protein/CFA (T cel)
[3] = target: CD4+ CD44+ cells from CFA only immunized DR1 transgenic mice (T cell receptors on cells)
[4] = target: HA259-274 specific CD4+ T cells from DR1 transgenic mice immunized with H5N1-rHA1 protein/CFA (T cel); remark: listed apart in the source
[5] = system: lymphoid cells from rHA1 immunized DR1 transgenic mice; format: cell-based, mouse
[6] = system: lymphoid cells from H5N1-rHA1 immunized DR1 transgenic mice; format: cell-based, mouse
[7] = system: lymphoid cells from H5N1-rHA1 immunized DR1 transgenic mice; format: cell-based, mouse; remark: listed apart in the source
[8] = system: lymphoid cells from H5N1-rHA1 immunized DR1 transgenic mice; format: cell-based, mouse; remark: listed apart in the source

Row | Substance | proliferative response ([3H]thymidine incorporation) [5] | IFN-γ production in culture supernatant [6] | proliferation response ([3H]thymidine incorporation) [7] | also measured
1 | AGFKGEQGPKGEPGP [CII280-294] |  |  |  | proliferative response ([3H]thymidine incorporation) [1]: Strong dose dependent responses
2 | HA259-274/DR1 tetramers (from UniProt P01903 26-216) (peptide-MHC) |  |  |  | fold increased staining against control CLIP/DR1 tetramers [2]: 30 fold; tetramer positive population [2]: 3%; tetramer positive cells [3]: 0.01%; tetramer positive population (% of the CD4+ CD44+ cells) [4]: 0.1
3 | INSSLPYQNIHPVTIGECPKY [HA298-317] | significantly lower; also recorded: no response |  |  | 
4 | KMRMATPLLMQALPM [CLIP89-105] |  | not | not | 
5 | PKYVKQNTLKLAT [HA306-318] | Strong dose dependent responses |  |  | 
6 | SNGNFIAPEYAYKIVK [HA259-274] |  | positive cytokine production | Strong dose dependent proliferation responses | IL-2 production in culture supernatant [8]: positive cytokine production
